Assays:
Test in all cases: KINOMEscan competition binding
Details in all cases: compound 10.0 µM
HIPK3 (human) = HIPK3 (human) (UniProt Q9H422)
SYK (human) = SYK (human) (UniProt P43405)
CSNK1G1 (human) = CSNK1G1 (human) (UniProt Q9HCP0)
CSNK1E (human) = CSNK1E (human) (UniProt P49674)
CIT (human) = CIT (human) (UniProt O14578)
MARK3 (human) = MARK3 (human) (UniProt P27448)
PIK3CD (human) = PIK3CD (human) (UniProt O00329)
MAP2K1 (human) = MAP2K1 (human) (UniProt Q02750)
PKN2 (human) = PKN2 (human) (UniProt Q16513)
ACVR2B (human) = ACVR2B (human) (UniProt Q13705)
BMP2K (human) = BMP2K (human) (UniProt Q9NSY1)
SIK1 (human) = SIK1 (human) (UniProt P57059)
IRAK3 (human) = IRAK3 (human) (UniProt Q9Y616)
[1] = system: BRAF (human), P15056 [V600E]
MAPK11 (human) = MAPK11 (human) (UniProt Q15759)
CDK4 CCND3 (human) = CDK4 CCND3 (human) (UniProt P11802+P30281)
TLK2 (human) = TLK2 (human) (UniProt Q86UE8)
ACVRL1 (human) = ACVRL1 (human) (UniProt P37023)
[2] = system: LRRK2 (human), Q5S007 [G2019S]
[3] = system: EGFR (human), P00533 [L858R]
ABL2 (human) = ABL2 (human) (UniProt P42684)
CDK2 (human) = CDK2 (human) (UniProt P24941)
GAK (human) = GAK (human) (UniProt O14976)
SIK2 (human) = SIK2 (human) (UniProt Q9H0K1)
EPHA3 (human) = EPHA3 (human) (UniProt P29320)
ANKK1 (human) = ANKK1 (human) (UniProt Q8NFD2)
MAST1 (human) = MAST1 (human) (UniProt Q9Y2H9)
CDK5 (human) = CDK5 (human) (UniProt Q00535)
NEK1 (human) = NEK1 (human) (UniProt Q96PY6)
PIM2 (human) = PIM2 (human) (UniProt Q9P1W9)
PRPF4B (human) = PRPF4B (human) (UniProt Q13523)
ROCK2 (human) = ROCK2 (human) (UniProt O75116)
VRK2 (human) = VRK2 (human) (UniProt Q86Y07)
MYLK4 (human) = MYLK4 (human) (UniProt Q86YV6)
MAPK7 (human) = MAPK7 (human) (UniProt Q13164)
STK35 (human) = STK35 (human) (UniProt Q8TDR2)
MUSK (human) = MUSK (human) (UniProt O15146)
MAP2K4 (human) = MAP2K4 (human) (UniProt P45985)
CSNK1A1L (human) = CSNK1A1L (human) (UniProt Q8N752)
AXL (human) = AXL (human) (UniProt P30530)
CSNK2A1 (human) = CSNK2A1 (human) (UniProt P68400)

Sequence of SIK1 (human) (P57059 whole entry, looked up): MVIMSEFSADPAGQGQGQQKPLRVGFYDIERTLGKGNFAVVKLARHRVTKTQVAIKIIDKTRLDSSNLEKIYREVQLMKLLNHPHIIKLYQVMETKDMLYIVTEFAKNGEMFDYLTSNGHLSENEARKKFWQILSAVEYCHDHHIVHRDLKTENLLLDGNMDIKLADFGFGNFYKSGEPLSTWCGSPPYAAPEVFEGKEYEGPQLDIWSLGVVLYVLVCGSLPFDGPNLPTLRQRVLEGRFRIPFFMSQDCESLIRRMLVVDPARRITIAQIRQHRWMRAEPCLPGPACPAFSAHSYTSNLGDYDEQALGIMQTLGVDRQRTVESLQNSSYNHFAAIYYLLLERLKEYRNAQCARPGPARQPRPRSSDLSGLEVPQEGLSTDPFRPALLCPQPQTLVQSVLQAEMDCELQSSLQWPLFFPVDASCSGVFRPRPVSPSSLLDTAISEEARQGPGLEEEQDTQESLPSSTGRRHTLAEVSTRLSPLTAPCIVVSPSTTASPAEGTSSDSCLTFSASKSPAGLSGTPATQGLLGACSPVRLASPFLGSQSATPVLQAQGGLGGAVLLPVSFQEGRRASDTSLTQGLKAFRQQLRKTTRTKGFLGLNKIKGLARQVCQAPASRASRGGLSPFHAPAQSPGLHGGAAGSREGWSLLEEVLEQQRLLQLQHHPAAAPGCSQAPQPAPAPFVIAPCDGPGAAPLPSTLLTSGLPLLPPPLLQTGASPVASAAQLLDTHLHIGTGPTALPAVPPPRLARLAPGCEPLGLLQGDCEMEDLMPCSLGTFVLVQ
Sequence of PIM2 (human) (Q9P1W9 whole entry, looked up): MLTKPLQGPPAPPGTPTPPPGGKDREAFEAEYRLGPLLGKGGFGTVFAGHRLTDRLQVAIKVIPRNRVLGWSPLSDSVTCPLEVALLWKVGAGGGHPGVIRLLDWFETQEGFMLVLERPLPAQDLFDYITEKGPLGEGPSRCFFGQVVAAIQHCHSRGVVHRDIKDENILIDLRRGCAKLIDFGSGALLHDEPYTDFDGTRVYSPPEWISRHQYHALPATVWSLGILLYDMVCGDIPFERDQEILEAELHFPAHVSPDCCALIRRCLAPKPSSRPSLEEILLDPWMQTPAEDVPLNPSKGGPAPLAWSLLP
Sequence of CSNK1E (human) (P49674 whole entry, looked up): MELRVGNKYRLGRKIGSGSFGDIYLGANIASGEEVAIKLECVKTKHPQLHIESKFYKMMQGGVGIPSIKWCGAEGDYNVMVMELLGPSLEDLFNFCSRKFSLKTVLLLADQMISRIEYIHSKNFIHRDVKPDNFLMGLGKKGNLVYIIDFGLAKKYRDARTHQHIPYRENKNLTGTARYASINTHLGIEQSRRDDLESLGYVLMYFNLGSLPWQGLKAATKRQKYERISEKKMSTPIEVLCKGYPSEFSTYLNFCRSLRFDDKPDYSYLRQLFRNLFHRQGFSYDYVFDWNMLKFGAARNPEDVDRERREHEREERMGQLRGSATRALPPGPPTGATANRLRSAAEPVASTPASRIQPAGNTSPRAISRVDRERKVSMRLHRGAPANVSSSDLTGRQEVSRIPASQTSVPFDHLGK
Sequence of PRPF4B (human) (Q13523 whole entry, looked up): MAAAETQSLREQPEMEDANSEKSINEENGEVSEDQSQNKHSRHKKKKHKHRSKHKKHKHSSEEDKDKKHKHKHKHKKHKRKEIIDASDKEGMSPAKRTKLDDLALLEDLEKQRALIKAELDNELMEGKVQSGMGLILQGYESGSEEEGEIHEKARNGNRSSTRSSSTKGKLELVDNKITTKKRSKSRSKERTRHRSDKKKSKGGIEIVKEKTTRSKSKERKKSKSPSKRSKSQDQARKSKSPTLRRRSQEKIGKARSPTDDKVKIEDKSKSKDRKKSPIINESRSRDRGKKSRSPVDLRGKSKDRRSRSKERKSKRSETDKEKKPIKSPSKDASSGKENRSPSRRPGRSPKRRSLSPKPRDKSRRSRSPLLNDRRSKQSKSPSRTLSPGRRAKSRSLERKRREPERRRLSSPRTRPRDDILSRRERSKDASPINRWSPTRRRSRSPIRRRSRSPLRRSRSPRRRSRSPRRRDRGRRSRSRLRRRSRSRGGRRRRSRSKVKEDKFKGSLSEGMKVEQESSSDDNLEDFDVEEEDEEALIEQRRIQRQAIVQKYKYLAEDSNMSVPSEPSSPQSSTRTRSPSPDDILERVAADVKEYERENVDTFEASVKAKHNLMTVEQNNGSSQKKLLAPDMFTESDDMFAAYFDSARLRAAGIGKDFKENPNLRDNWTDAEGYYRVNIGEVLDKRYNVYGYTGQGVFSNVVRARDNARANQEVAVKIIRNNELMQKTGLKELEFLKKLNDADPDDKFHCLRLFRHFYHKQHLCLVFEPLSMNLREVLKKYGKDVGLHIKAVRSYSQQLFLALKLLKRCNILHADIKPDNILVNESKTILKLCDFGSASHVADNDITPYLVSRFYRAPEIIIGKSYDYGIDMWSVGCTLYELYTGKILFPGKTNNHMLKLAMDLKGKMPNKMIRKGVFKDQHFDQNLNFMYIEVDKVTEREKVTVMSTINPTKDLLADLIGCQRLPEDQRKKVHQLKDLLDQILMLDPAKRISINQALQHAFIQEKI
Sequence of TLK2 (human) (Q86UE8 whole entry, looked up): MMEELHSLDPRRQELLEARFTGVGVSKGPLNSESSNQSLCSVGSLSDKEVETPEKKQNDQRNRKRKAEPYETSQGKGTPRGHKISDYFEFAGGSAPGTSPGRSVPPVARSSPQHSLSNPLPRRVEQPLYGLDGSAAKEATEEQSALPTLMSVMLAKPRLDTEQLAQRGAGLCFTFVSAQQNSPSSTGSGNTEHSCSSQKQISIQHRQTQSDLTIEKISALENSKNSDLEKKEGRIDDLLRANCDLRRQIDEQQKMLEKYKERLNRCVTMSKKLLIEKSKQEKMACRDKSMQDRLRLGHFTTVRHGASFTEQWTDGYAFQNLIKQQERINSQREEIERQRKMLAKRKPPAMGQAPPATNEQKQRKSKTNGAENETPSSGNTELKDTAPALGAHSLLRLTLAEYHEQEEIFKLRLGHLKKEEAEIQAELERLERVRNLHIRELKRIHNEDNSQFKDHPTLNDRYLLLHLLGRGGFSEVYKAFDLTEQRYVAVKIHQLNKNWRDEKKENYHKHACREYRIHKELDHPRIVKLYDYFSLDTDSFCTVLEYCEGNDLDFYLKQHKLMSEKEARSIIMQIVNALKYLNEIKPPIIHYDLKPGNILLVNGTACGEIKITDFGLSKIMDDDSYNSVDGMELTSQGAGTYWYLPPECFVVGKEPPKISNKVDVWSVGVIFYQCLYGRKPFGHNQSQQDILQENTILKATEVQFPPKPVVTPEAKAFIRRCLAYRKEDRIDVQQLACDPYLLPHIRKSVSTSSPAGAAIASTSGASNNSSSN
Sequence of BRAF (human), P15056 [V600E] (P15056 whole entry V600E, looked up): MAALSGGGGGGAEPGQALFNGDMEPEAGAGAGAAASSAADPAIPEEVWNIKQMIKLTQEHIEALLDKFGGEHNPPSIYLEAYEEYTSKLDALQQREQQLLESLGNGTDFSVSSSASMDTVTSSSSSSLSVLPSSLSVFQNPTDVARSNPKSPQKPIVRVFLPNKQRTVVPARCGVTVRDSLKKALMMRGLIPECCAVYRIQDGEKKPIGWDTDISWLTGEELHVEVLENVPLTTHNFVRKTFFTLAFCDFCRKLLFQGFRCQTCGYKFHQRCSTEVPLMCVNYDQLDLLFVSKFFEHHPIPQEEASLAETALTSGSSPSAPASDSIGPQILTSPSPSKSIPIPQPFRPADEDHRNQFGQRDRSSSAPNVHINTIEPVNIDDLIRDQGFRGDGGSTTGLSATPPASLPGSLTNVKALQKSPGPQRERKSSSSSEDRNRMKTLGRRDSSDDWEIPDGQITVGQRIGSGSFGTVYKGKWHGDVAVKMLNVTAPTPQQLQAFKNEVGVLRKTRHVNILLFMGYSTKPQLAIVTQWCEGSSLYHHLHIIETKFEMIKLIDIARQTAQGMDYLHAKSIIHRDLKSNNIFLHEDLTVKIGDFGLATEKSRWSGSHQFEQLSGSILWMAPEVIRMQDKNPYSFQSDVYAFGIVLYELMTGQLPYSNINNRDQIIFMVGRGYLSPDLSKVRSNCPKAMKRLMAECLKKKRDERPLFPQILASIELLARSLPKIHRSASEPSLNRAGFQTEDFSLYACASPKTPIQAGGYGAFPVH
Sequence of MARK3 (human) (P27448 whole entry, looked up): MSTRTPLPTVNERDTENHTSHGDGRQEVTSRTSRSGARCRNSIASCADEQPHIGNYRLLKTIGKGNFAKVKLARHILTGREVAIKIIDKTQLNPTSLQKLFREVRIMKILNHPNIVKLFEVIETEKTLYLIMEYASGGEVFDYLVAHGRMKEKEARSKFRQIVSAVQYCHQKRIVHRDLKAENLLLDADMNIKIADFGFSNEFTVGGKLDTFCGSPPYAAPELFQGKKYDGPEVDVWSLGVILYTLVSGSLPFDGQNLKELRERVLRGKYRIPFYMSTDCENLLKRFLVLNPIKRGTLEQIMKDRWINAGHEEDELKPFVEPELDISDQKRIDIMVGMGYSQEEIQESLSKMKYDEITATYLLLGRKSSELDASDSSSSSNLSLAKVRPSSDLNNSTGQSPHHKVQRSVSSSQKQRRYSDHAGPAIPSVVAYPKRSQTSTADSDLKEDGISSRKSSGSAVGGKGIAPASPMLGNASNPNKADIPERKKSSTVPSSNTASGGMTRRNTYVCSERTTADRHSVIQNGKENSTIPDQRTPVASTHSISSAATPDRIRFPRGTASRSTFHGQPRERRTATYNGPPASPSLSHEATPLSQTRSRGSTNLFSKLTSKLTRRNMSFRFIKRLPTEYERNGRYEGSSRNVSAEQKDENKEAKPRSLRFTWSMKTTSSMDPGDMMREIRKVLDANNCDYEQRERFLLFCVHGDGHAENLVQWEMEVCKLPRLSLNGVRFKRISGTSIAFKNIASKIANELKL

COc1ccc(-c2ccc3c(N4CCOCC4)nc(N4C[C@@H](C)O[C@@H](C)C4)nc3n2)cc1CO
kinase still bound, per cent of control (HIPK3 (human)): 76%
kinase still bound, per cent of control (SYK (human)): 100%
kinase still bound, per cent of control (CSNK1G1 (human)): 94%
kinase still bound, per cent of control (CSNK1E (human)): 87%
kinase still bound, per cent of control (CIT (human)): 96%
kinase still bound, per cent of control (MARK3 (human)): 96%
kinase still bound, per cent of control (PIK3CD (human)): 0.95%
kinase still bound, per cent of control (MAP2K1 (human)): 100%
kinase still bound, per cent of control (PKN2 (human)): 100%
kinase still bound, per cent of control (ACVR2B (human)): 100%
kinase still bound, per cent of control (BMP2K (human)): 98%
kinase still bound, per cent of control (SIK1 (human)): 90%
kinase still bound, per cent of control (IRAK3 (human)): 100%
kinase still bound, per cent of control [1]: 92%
kinase still bound, per cent of control (MAPK11 (human)): 98%
per cent of control (CDK4 CCND3 (human)): 80%
kinase still bound, per cent of control (TLK2 (human)): 87%
kinase still bound, per cent of control (ACVRL1 (human)): 100%
kinase still bound, per cent of control [2]: 100%
kinase still bound, per cent of control [3]: 100%
kinase still bound, per cent of control (ABL2 (human)): 95%
per cent of control (CDK2 (human)): 77%
kinase still bound, per cent of control (GAK (human)): 95%
kinase still bound, per cent of control (SIK2 (human)): 91%
kinase still bound, per cent of control (EPHA3 (human)): 90%
kinase still bound, per cent of control (ANKK1 (human)): 98%
kinase still bound, per cent of control (MAST1 (human)): 100%
per cent of control (CDK5 (human)): 100%
kinase still bound, per cent of control (NEK1 (human)): 100%
kinase still bound, per cent of control (PIM2 (human)): 100%
kinase still bound, per cent of control (PRPF4B (human)): 100%
kinase still bound, per cent of control (ROCK2 (human)): 21%
kinase still bound, per cent of control (VRK2 (human)): 87%
kinase still bound, per cent of control (MYLK4 (human)): 92%
kinase still bound, per cent of control (MAPK7 (human)): 100%
kinase still bound, per cent of control (STK35 (human)): 96%
kinase still bound, per cent of control (MUSK (human)): 100%
kinase still bound, per cent of control (MAP2K4 (human)): 88%
kinase still bound, per cent of control (CSNK1A1L (human)): 97%
kinase still bound, per cent of control (AXL (human)): 100%
kinase still bound, per cent of control (CSNK2A1 (human)): 96%
